In one series the test system is HEK293 T Cell. The experiment in a line: MTT assay for cytotoxicity. It counts as cell-based. Particulars: 100 nM to 1,000 nM, FIG. 29. The method, then: (§1) To examine safety of the four kinds of novel compounds, an MTT assay for a cytotoxicity test, an Ames test for rapid evaluation of genotoxicity, and an hERG assay for evaluation of potential effects on cardiac repolarization were carried out. Methods generally used were conducted for the examination.
(§2) In detail, in the MTT assay, 80 to 800 times higher concentrations (100 nM to 1,000 nM) than the […] (1 ng/mL=1.24 nM) were determined as test concentrations of the four kinds of novel compounds. and the drug cytotoxicity was measured in mammalian normal cells (HEK293 T Cell). In the Ames test, the four kinds of novel compounds were treated at a concentration of 4 μg, 16 μg, 64 μg per plate, respectively, and the four kinds of novel compounds were evaluated by examining whether reverse mutation was induced a histidine auxotroph strain (Salmonella typhimurium TA98) and a tryptophan auxotroph strain (Escherichia coli WP2 uvrA). In the hERG assay, 0 μM, 2 μM, 8 μM, and 32 μM of each of the four kinds of novel compounds were treated to two or more numbers of cells. One CHO hERG cell was perfused with a normal tyrode solution. After confirming that the hERG channel current was recorded consistently for 3 to 4 sweeps, an excipient control group and the groups, each treated with one of the four kinds of novel compounds, were perfused for about 1 minute to 2 minutes or longer, and the magnitude of the hERG channel current was allowed to constantly record, and the magnitude of the relative current (pA or nA) and the suppression rate (%) were measured.

Series [1] relates to Salmonella typhimurium TA98. The series is described as follows: Ames test (reverse mutation), histidine auxotroph strain. Particulars: 4 μg, 16 μg, 64 μg per plate. The protocol:
as §1, §2

A further series has as its target T1, hERG channel (Homo sapiens, UniProt Q12809).
T1 construct: expressed in transfected cells; host or cells: CHO hERG cells
The experiment in a line: hERG assay in CHO hERG cells. Format: cell-based. Particulars: 0 μM, 2 μM, 8 μM, and 32 μM.
From the text: Further, in still another specific embodiment of the present invention, safety was confirmed in a 3-(4,5-dimethylthiazol-2-yl)-2,5-diphenyltetrazolium bromide (MTT) assay (FIG. 29) for cytotoxicity tests of the four kinds of novel compounds, an Ames test for rapid evaluation of genotoxicity, a human eag-related gene (hERG) assay for evaluation of potential effects on cardiac repolarization.
as §1, §2

In series [2] the test system is Escherichia coli WP2 uvrA. The experiment in a line: Ames test (reverse mutation), tryptophan auxotroph strain. Particulars: 4 μg, 16 μg, 64 μg per plate. The protocol:
as §1, §2

In series [3] the test system is nigrostriatal dopaminergic pathway. The experiment in a line: MPTP-induced Parkinson's disease animal model, TH immunohistochemistry. It counts as in vivo, mouse. Particulars: cannula injection into brain for 3 days, 5 mg/mL, MPTP i.p. on day 2, measured day 4, FIG. 28A.
A further series has as its system CD4+ T cells. The experiment in a line: in vitro T-cell activation assay (CTV retention, flow cytometry). Format: cell-based, mouse. The text has this: The reduced level of the immunosuppressive activity of the four kinds of novel compounds was examined using a common in vitro T-cell activation assay (J. Immunol. 143:718-726, 1989). […] When CD4+ T cells are stained with Cell Trace™ Violet (CTV), CTV retention of each cell decreases, as cells divide and T cells proliferate according to the immune response, and thus immunosuppressive activity was examined using the CTV retention as an index.
Single cells were isolated from the spleen of 6- to 8-week-old B6J laboratory mouse, and CD4+ T cells were isolated using MagniSort® Mouse CD4 T cell Enrichment Kit (eBioscience). CD4+ T cells were stained with Cell Trace™ Violet (CTV) Cell Proliferation Kit (Molecular Probes) and FK506 or each of the four kinds of novel compounds was added at a concentration of 0.01 ng/mL, 0.1 ng/mL, 1 ng/mL, 10 ng/mL, 100 ng/mL, 1000 ng/mL, followed by incubation for 72 hours. For activation of T cells. Dynabeads® Mouse T-Activator CD3/CD28 (Gibco) was used. As a control group, non-activated T cells were used. After incubation, CTV intensity was analyzed by flow cytometry.

Series [4] concerns primary cultured murine hippocampal neurons. The series is described as follows: functional synaptogenic activity, patch-clamp recordings of excitatory synaptic currents. It counts as cell-based. Particulars: treatment concentration 1 ng/mL, days 10-14 after primary culture. The protocol: The functional synaptogenic activity of the four kinds of novel compounds was examined using primary cultured murine hippocampal neurons according to a method reported by D. Park. et al. (Sci. Rep. 7:7260, 2017). In detail, hippocampal neurons on days 10-14 after primary culture while being exposed to FK506 or each of the four kinds of novel compounds (treatment concentration: 1 ng/mL) was subjected to patch-clamp recordings to measure frequency of excitatory synaptic currents. The frequency of excitatory synaptic currents is used as an index for changes in the number of synapses.

The test system is the same in series [5]. The series is described as follows: neurite outgrowth in primary cultured hippocampal neurons. It counts as cell-based. Particulars: treatment concentration 1 ng/mL, neurite lengths, FIG. 26. The method, then: The neuronal growth-promoting ability of the four kinds of novel compounds was examined using primary cultured murine hippocampal neurons according to a method reported by Jing Sun et al. (J. Neuroinflam. 15:180, 2018). […] The neurite lengths were measured on photographic prints according to a previously reported method (J. Pharmacol. Exp. Ther. 302:1278-1285, 2002).

≈ marks a conversion by molar mass, not a printed value.

T1 sequence (Q12809 whole entry): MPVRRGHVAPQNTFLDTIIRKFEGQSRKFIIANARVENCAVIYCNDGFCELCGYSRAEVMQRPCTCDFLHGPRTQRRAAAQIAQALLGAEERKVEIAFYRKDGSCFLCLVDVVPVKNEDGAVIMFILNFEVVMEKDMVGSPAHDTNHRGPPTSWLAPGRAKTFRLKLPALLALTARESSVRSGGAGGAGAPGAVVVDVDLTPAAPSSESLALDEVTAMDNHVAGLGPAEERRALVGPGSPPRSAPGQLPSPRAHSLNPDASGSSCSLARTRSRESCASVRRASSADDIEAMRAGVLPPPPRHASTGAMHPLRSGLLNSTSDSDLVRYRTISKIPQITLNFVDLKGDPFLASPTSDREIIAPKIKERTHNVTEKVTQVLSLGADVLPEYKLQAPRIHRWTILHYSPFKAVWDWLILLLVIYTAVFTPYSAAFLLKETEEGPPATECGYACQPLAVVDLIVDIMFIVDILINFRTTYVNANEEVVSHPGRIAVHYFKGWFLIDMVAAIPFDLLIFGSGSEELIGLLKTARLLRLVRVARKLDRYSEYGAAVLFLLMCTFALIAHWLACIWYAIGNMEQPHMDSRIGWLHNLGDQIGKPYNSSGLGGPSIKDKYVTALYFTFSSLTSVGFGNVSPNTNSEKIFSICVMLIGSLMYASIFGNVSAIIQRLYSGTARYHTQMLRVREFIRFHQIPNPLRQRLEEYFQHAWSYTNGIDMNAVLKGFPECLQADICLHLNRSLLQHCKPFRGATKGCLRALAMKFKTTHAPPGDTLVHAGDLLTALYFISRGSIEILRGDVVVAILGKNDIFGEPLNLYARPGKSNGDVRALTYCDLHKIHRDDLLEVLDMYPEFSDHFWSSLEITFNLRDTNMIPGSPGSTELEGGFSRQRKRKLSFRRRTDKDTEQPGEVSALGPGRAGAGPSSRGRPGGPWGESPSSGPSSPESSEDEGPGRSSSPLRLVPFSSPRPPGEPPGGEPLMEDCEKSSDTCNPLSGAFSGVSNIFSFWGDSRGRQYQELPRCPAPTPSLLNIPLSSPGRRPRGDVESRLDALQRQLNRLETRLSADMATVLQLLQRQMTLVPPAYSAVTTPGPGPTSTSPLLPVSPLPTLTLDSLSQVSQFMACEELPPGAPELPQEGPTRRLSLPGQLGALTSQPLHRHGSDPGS

Take `CC[C@@H]1/C=C(\C)C[C@H](C)C[C@H](OC)[C@H]2O[C@@](O)(CC(=O)N3CCC[C@H]3C(=O)O[C@H](/C(C)=C/[C@@H]3CC[C@@H](O)[C@H](O)C3)[C@H](C)[C@@H](O)CC1=O)[C@H](C)C[C@@H]2OC` [9-deoxo-31-O-demethyl-prolyl FK520]: the “cytotoxicity (MTT)” value with HEK293 T Cell is reported as “no cytotoxicity was observed”. In addition, the “reverse mutation induction (Ames test)” value in series [1] and in series [2] was “without inducing reverse mutations” in each case. For the same molecule, the “risk of cardiac repolarization (hERG channel current)” value (“risk of cardiac repolarization” for short) on hERG channel is recorded as “without risk of cardiac repolarization”. The “recovery in the density of neuron fibers” value in series [3] is “superior recovery in the density of neuron fibers, as compared to those treated with FK506”. Also, in the series on CD4+ T cells (T cell proliferation, CTV intensity, Table 7 and FIG. 25), the “immunosuppressive activity as compared with FK506” value is given as “lowest immunosuppressive activity”. Also, the IC50 in the series with CD4+ T cells (activated mouse CD4+ T cells (CD3/CD28), 72 hours incubation, CTV intensity by flow cytometry, read-out: Immunosuppression IC50) came out at 7.09 µg/mL (≈ 9.45 µM).

Regarding `CCC[C@@H]1/C=C(\C)C[C@H](C)C[C@H](OC)[C@H]2O[C@@](O)(CC(=O)N3CCC[C@H]3C(=O)O[C@H](/C(C)=C/[C@@H]3CC[C@@H](O)[C@H](OC)C3)[C@H](C)[C@@H](O)CC1=O)[C@H](C)C[C@@H]2OC` [9-deoxo-36,37-dihydro-prolyl FK506], in the series on HEK293 T Cell, the “cytotoxicity (MTT)” value is “no cytotoxicity was observed”. For the same molecule, the “reverse mutation induction (Ames test)” value in series [1] and in series [2] was “without inducing reverse mutations” throughout. For the same molecule, the “risk of cardiac repolarization” value on hERG channel is given as “without risk of cardiac repolarization”. The “spontaneous excitatory synaptic currents (sEPSCs), frequency” value (“spontaneous excitatory synaptic currents” for short) in series [4] is listed as 3.29±0.22. In addition, the “recovery in the density of neuron fibers” value in series [3] is recorded as “superior recovery in the density of neuron fibers, as compared to those treated with FK506”.

For the molecule `CCC[C@@H]1/C=C(\C)C[C@H](C)C[C@H](OC)[C@H]2O[C@@](O)(CC(=O)N3CCC[C@H]3C(=O)O[C@H](/C(C)=C/[C@@H]3CC[C@@H](O)[C@H](O)C3)[C@H](C)[C@@H](O)CC1=O)[C@H](C)C[C@@H]2OC` [9-deoxo-31-O-demethyl-36,37-dihydro-prolyl FK506], the “cytotoxicity (MTT)” value in the series on HEK293 T Cell is on record as “no cytotoxicity was observed”. Also, the “reverse mutation induction (Ames test)” value in series [1] and in series [2] was “without inducing reverse mutations” throughout. Besides, the “risk of cardiac repolarization” value on hERG channel is on record as “without risk of cardiac repolarization”. Also, the “spontaneous excitatory synaptic currents” value in series [4] came out at 2.63±0.27. Moreover, the “recovery in the density of neuron fibers” value in series [3] is recorded as “superior recovery in the density of neuron fibers, as compared to those treated with FK506”.

For the molecule `C=CC[C@@H]1/C=C(\C)C[C@H](C)C[C@H](OC)[C@H]2O[C@@](O)(C(=O)C(=O)N3CCCC[C@H]3C(=O)O[C@H](/C(C)=C/[C@@H]3CC[C@@H](O)[C@H](OC)C3)[C@H](C)[C@@H](O)CC1=O)[C@H](C)C[C@@H]2OC` [FK506], the “spontaneous excitatory synaptic currents” value in series [4] stood at 2.61±0.18.

On to 9-deoxo-prolyl FK520, for which the “reverse mutation induction (Ames test)” value in series [1] and in series [2] was “without inducing reverse mutations” in each case. For the same molecule, the “risk of cardiac repolarization” value at hERG channel is given as “without risk of cardiac repolarization”. Further, the neurite outgrowth effect result in series [5] is on record as “superior neurite outgrowth effect, as compared with FK506”. Also, the “recovery in the density of neuron fibers” value in series [3] was “superior recovery in the density of neuron fibers, as compared to those treated with FK506”. Also, in the series with CD4+ T cells (activated mouse CD4+ T cells (CD3/CD28), 72 hours incubation, CTV intensity by flow cytometry), the “Immunosuppression IC50” value came to 3.2888 µg/mL.
